SMILES strings stand for the structures.

Our source for the melting point values is patent publication US9181199B2, “Uracil derivatives and use thereof” (RESprotect GmbH, priority 2008, dated 2015).

Take `O=c1[nH]c(=O)n(Cc2ccccc2)cc1C=C(Br)Br` [compound L, 1-Benzyl-5-(2,2-dibromovinyl)uracil]: the melting point (commonly the temperature, or range, at which the solid turns liquid) is 205 to 206 °C.

Regarding `O=c1c(C=CBr)cn(C(c2ccccc2)c2ccccc2)c(=O)n1Cc1ccccc1` [compound A, 1-Benzhydryl-3-benzyl-5-(2-bromovinyl)uracil], the melting point was found to be 131 °C.

For `O=c1[nH]c(=O)n(C(c2ccccc2)c2ccccc2)cc1-c1c[nH]nn1` [compound F, 1-Benzhydryl-5-(1H-1,2,3-triazol-4-yl)uracil], the melting point amounted to 165 °C.

On to `O=c1[nH]c(=O)n(Cc2ccccc2)cc1C#CBr` [compound D, 1-Benzyl-5-bromoethynyluracil], for which the melting point is 162 to 165 °C.

As to `C#Cc1cn(Cc2ccccc2)c(=O)[nH]c1=O` [compound R, 1-Benzyl-5-ethynyluracil], the melting point was 190 to 193 °C.

On to `C=CCn1cc(C=CBr)c(=O)[nH]c1=O` [compound C, 1-Allyl-5-(2-bromovinyl)uracil], for which the melting point was 137 °C.

Turning to `C=CCn1cc(C#CBr)c(=O)[nH]c1=O` [compound I, 1-Allyl-5-bromoethynyluracil], the melting point was 164 to 168 °C.

Consider `O=c1[nH]c(=O)n(Cc2ccccc2)cc1C=CBr` [compound B, 1-Benzyl-5-(2-bromovinyl)uracil], for which the melting point is 183 °C.

The compound `C=CCn1cc(C=C(Br)Br)c(=O)[nH]c1=O` [compound H, 1-Allyl-5-(2,2-dibromovinyl)uracil] returned a melting point of 154 to 156 °C.

As for `CC(c1ccccc1)n1cc(C=C(Br)Br)c(=O)[nH]c1=O` (stereo not shown) [compound M, 1-(1-Phenylethyl)-5-(2,2-dibromovinyl)uracil], the melting point is 179 to 183 °C.

On to `N#CC=Cc1cn(C(c2ccccc2)c2ccccc2)c(=O)[nH]c1=O` [compound G, 1-Benzhydryl-5-(2-cyanovinyl)uracil], for which the melting point is 261 °C.

On to `CC(c1ccccc1)n1cc(C#CBr)c(=O)[nH]c1=O` (stereo not shown) [compound N, 1-(1-Phenylethyl)-5-bromoethynyluracil], for which the melting point was 163 to 167 °C.

Compound `C[Si](C)(C)C#Cc1cn(Cc2ccccc2)c(=O)[nH]c1=O` registered a melting point of 213 to 215 °C.
